Measurements published in US9417241B2, “5, 10, 15, 20-tetrakis (carboxyphenyl) porphine (TCPP) and kit for use with detecting cancer” (bioAffinity Technologies, Inc., priority 2000, dated 2016).

How the values were obtained:
[1] = tested on: sputum cells (dysplastic, pre-cancerous and cancerous cells); assay: Glass slide assay for detection of pre-cancerous and cancerous cells with TCPP (fluorescence microscopy of sputum monolayer slides vs PAP-stain cytomorphology); format: cell-based, human; details: for Slides with morphology using TCPP/Slides with morphology using cytomorphology: N = 60 blinded sputum samples, 40 μg/mL TCPP
[2] = Maximum solubility of TCPP in saline or blood; format: physicochemical
[3] = of the six TCPP samples with class 11 designation

Compound: O=C(O)c1ccc(-c2c3nc(c(-c4ccc(C(=O)O)cc4)c4ccc([nH]4)c(-c4ccc(C(=O)O)cc4)c4nc(c(-c5ccc(C(=O)O)cc5)c5ccc2[nH]5)C=C4)C=C3)cc1 [TCPP]
- Number of Samples with Cells having Numerical Description by TCPP Fluorescence Microscopy/Number of Samples with Cell Description by Cytmorphology ([1]; 9 = Degenerated cell clusters, medium to high fluorescence, Negative or metaplastic (n = 10)): 0/10
- Number of Samples with Cells having Numerical Description by TCPP Fluorescence Microscopy/Number of Samples with Cell Description by Cytmorphology ([1]; 9 = Degenerated cell clusters, medium to high fluorescence, Severe dysplasia (n = 8)): 0/8
- Number of Samples with Cells having Numerical Description by TCPP Fluorescence Microscopy/Number of Samples with Cell Description by Cytmorphology ([1]; 10 = Cells uniform size with small round nucleus, medium fluorescence (nucleus only), Adenicarcinoma, squamous cell and small cell carcinoma (n = 10)): 2/10
- Number of Samples with Cells having Numerical Description by TCPP Fluorescence Microscopy/Number of Samples with Cell Description by Cytmorphology ([1]; 10 = Cells uniform size with small round nucleus, medium fluorescence (nucleus only), Carcinoma in situ (n = 11)): 1/11
- Number of Samples with Cells having Numerical Description by TCPP Fluorescence Microscopy/Number of Samples with Cell Description by Cytmorphology ([1]; 10 = Cells uniform size with small round nucleus, medium fluorescence (nucleus only), Mild dysplasia (n = 12)): 2/12
- Number of Samples with Cells having Numerical Description by TCPP Fluorescence Microscopy/Number of Samples with Cell Description by Cytmorphology ([1]; 10 = Cells uniform size with small round nucleus, medium fluorescence (nucleus only), Moderate dysplasia (n = 9)): 2/9
- Number of Samples with Cells having Numerical Description by TCPP Fluorescence Microscopy/Number of Samples with Cell Description by Cytmorphology ([1]; 10 = Cells uniform size with small round nucleus, medium fluorescence (nucleus only), Negative or metaplastic (n = 10)): 2/10
- Number of Samples with Cells having Numerical Description by TCPP Fluorescence Microscopy/Number of Samples with Cell Description by Cytmorphology ([1]; 10 = Cells uniform size with small round nucleus, medium fluorescence (nucleus only), Severe dysplasia (n = 8)): 1/8
- Number of Samples with Cells having Numerical Description by TCPP Fluorescence Microscopy/Number of Samples with Cell Description by Cytmorphology ([1]; 11 = Cell membrane barely visible, medium fluorescence, Adenicarcinoma, squamous cell and small cell carcinoma (n = 10)): 0/10
- Number of Samples with Cells having Numerical Description by TCPP Fluorescence Microscopy/Number of Samples with Cell Description by Cytmorphology ([1]; 11 = Cell membrane barely visible, medium fluorescence, Carcinoma in situ (n = 11)): 2/11
- Number of Samples with Cells having Numerical Description by TCPP Fluorescence Microscopy/Number of Samples with Cell Description by Cytmorphology ([1]; 11 = Cell membrane barely visible, medium fluorescence, Mild dysplasia (n = 12)): 6/12
- Number of Samples with Cells having Numerical Description by TCPP Fluorescence Microscopy/Number of Samples with Cell Description by Cytmorphology ([1]; 11 = Cell membrane barely visible, medium fluorescence, Moderate dysplasia (n = 9)): 2/9
- Number of Samples with Cells having Numerical Description by TCPP Fluorescence Microscopy/Number of Samples with Cell Description by Cytmorphology ([1]; 11 = Cell membrane barely visible, medium fluorescence, Negative or metaplastic (n = 10)): 6/10
- Number of Samples with Cells having Numerical Description by TCPP Fluorescence Microscopy/Number of Samples with Cell Description by Cytmorphology ([1]; 11 = Cell membrane barely visible, medium fluorescence, Severe dysplasia (n = 8)): 2/8
- Number of Samples with Cells having Numerical Description by TCPP Fluorescence Microscopy/Number of Samples with Cell Description by Cytmorphology ([1]; 12 = Nuclear debris clumps, no fluorescence, Adenicarcinoma, squamous cell and small cell carcinoma (n = 10)): 0/10
- Number of Samples with Cells having Numerical Description by TCPP Fluorescence Microscopy/Number of Samples with Cell Description by Cytmorphology ([1]; 12 = Nuclear debris clumps, no fluorescence, Carcinoma in situ (n = 11)): 0/11
- Number of Samples with Cells having Numerical Description by TCPP Fluorescence Microscopy/Number of Samples with Cell Description by Cytmorphology ([1]; 12 = Nuclear debris clumps, no fluorescence, Mild dysplasia (n = 12)): 1/12
- Number of Samples with Cells having Numerical Description by TCPP Fluorescence Microscopy/Number of Samples with Cell Description by Cytmorphology ([1]; 12 = Nuclear debris clumps, no fluorescence, Moderate dysplasia (n = 9)): 0/9
- Number of Samples with Cells having Numerical Description by TCPP Fluorescence Microscopy/Number of Samples with Cell Description by Cytmorphology ([1]; 12 = Nuclear debris clumps, no fluorescence, Negative or metaplastic (n = 10)): 0/10
- Number of Samples with Cells having Numerical Description by TCPP Fluorescence Microscopy/Number of Samples with Cell Description by Cytmorphology ([1]; 12 = Nuclear debris clumps, no fluorescence, Severe dysplasia (n = 8)): 0/8
- Number of Samples with Cells having Numerical Description by TCPP Fluorescence Microscopy/Number of Samples with Cell Description by Cytmorphology ([1]; 13 = Nuclear debris background, no fluorescence, Adenicarcinoma, squamous cell and small cell carcinoma (n = 10)): 3/10
- Number of Samples with Cells having Numerical Description by TCPP Fluorescence Microscopy/Number of Samples with Cell Description by Cytmorphology ([1]; 13 = Nuclear debris background, no fluorescence, Carcinoma in situ (n = 11)): 5/11
- Number of Samples with Cells having Numerical Description by TCPP Fluorescence Microscopy/Number of Samples with Cell Description by Cytmorphology ([1]; 13 = Nuclear debris background, no fluorescence, Mild dysplasia (n = 12)): 5/12
- Number of Samples with Cells having Numerical Description by TCPP Fluorescence Microscopy/Number of Samples with Cell Description by Cytmorphology ([1]; 13 = Nuclear debris background, no fluorescence, Moderate dysplasia (n = 9)): 8/9
- Number of Samples with Cells having Numerical Description by TCPP Fluorescence Microscopy/Number of Samples with Cell Description by Cytmorphology ([1]; 13 = Nuclear debris background, no fluorescence, Negative or metaplastic (n = 10)): 6/10
- Number of Samples with Cells having Numerical Description by TCPP Fluorescence Microscopy/Number of Samples with Cell Description by Cytmorphology ([1]; 13 = Nuclear debris background, no fluorescence, Severe dysplasia (n = 8)): 2/8
- Number of Samples with Cells having Numerical Description by TCPP Fluorescence Microscopy/Number of Samples with Cell Description by Cytmorphology ([1]; 14 = Nuclear debris background, medium fluorescence, Adenicarcinoma, squamous cell and small cell carcinoma (n = 10)): 0/10
- Number of Samples with Cells having Numerical Description by TCPP Fluorescence Microscopy/Number of Samples with Cell Description by Cytmorphology ([1]; 14 = Nuclear debris background, medium fluorescence, Carcinoma in situ (n = 11)): 1/11
- Number of Samples with Cells having Numerical Description by TCPP Fluorescence Microscopy/Number of Samples with Cell Description by Cytmorphology ([1]; 14 = Nuclear debris background, medium fluorescence, Mild dysplasia (n = 12)): 2/12
- Number of Samples with Cells having Numerical Description by TCPP Fluorescence Microscopy/Number of Samples with Cell Description by Cytmorphology ([1]; 14 = Nuclear debris background, medium fluorescence, Moderate dysplasia (n = 9)): 2/9
- Number of Samples with Cells having Numerical Description by TCPP Fluorescence Microscopy/Number of Samples with Cell Description by Cytmorphology ([1]; 14 = Nuclear debris background, medium fluorescence, Negative or metaplastic (n = 10)): 1/10
- Number of Samples with Cells having Numerical Description by TCPP Fluorescence Microscopy/Number of Samples with Cell Description by Cytmorphology ([1]; 14 = Nuclear debris background, medium fluorescence, Severe dysplasia (n = 8)): 1/8
- Avg. # numerical descriptions per cell examined ([1]; Adenicarcinoma, squamous cell and small cell carcinoma (n = 10)): 4.90
- Slides with morphology using TCPP/Slides with morphology using cytomorphology ([1]; Adenocarcinoma, squamous cell and small cell carcinoma): 10/10
- Avg. # numerical descriptions per cell examined ([1]; Carcinoma in situ (n = 11)): 4.82
- Slides with morphology using TCPP/Slides with morphology using cytomorphology ([1]; Carcinoma in situ): 11/11
- Avg. # numerical descriptions per cell examined ([1]; Mild dysplasia (n = 12)): 3.08
- Slides with morphology using TCPP/Slides with morphology using cytomorphology ([1]; Mild dysplasia): 12/12
- Avg. # numerical descriptions per cell examined ([1]; Moderate dysplasia (n = 9)): 4.11
- Slides with morphology using TCPP/Slides with morphology using cytomorphology ([1]; Moderate dysplasia): 9/9
- Avg. # numerical descriptions per cell examined ([1]; Negative or metaplastic (n = 10)): 1.80
- Slides with morphology using TCPP/Slides with morphology using cytomorphology ([1]; Negative or metaplastic, 10 minutes, 36° C.): 4/10
- Avg. # numerical descriptions per cell examined ([1]; Severe dysplasia (n = 8)): 3.13
- Slides with morphology using TCPP/Slides with morphology using cytomorphology ([1]; Severe dysplasia): 8/8
- Samples demonstrating the same morphology using the TCPP method ([1]; among the ten samples characterized as normal or metaplastic by PAP-staining): four
- Sputum samples mildly dysplastic to cancerous by PAP-staining also identified as abnormal by TCPP detection ([1]; blinded study, 60 samples): Fifty out of fifty
- Average number of numerical classifications assigned ([1]; cells displaying adenicarcinoma, squamous cell and small cell carcinoma): 5
- Average number of numerical classifications assigned ([1]; cells having a negative or metaplastic morphology): 2
- Samples also indicating fluorescence from nuclear debris (class 13 or 14) [1, 3]: three
- Samples also showing class 10 designation (fluorescence from the nucleus only) [1, 3]: two
- Samples designated with a class 11 cell description based on TCPP fluorescence ([1]; of the ten cell samples negative or metaplastic by PAP-staining): 6
- TCPP uptake ([1]; samples diagnosed as normal): minimal or no TCPP uptake
- TCPP-exposed cells fluorescing at which the sample reliably correlated with at least the mildly dysplastic diagnosis ([1]; sputum monolayer slides): 2-3%
- Maximum solubility in saline or blood [2]: about 100 μg/mL
